Series [1] concerns HBV. In words: Antiviral studies using HepG2.2.15 cells (HBV DNA and HBV RNA readouts). Conditions: for Effect on secreted HBV RNA, single drug: 6 days, increasing concentrations; for EC50: Hepatitis B virus. Format: cell-based, hepatitis B virus (GT D). Here is the method: (§1) In combination studies, cells were treated with compounds either alone or in combination after combining the compounds in a checkerboard format. In studies examining the effect of human serum, serially diluted NVR 3-778 was added into cell culture medium containing 0% to 40% human serum (BioreclamationIVT). Cells were incubated with the compounds for 3 days, after which the medium was removed, fresh medium containing the compounds was added to the cells, and the cells were incubated for another 3 days prior to harvesting of the supernatants or cells for antiviral assays. To quantify intracellular encapsidated rcDNA or encapsidated pgRNA, cells were first solubilized using lysis buffer containing 1% NP-40 and 10 mM CaCl2. The cytoplasmic fraction was then treated with S7 nuclease (6 units) to remove nonencapsidated nucleic acids, after which the S7 nuclease was inactivated by the addition of EDTA (0.5 M). […] The levels of HBV DNA were determined by a bDNA assay as described above (Affymetrix). Supernatants or cell lysates containing HBV RNA were treated with proteinase K (2.5 µg) at 50°C for 40 min, transferred to a capture plate containing HBV RNA probe sets, and hybridized overnight at 55°C. Captured HBV RNA was measured by the addition of a chemiluminescent substrate using a QuantiGene assay (Affymetrix). […] At day 6, the CellTiter-Glo reagent was added to the cells and viability was determined according to the manufacturer’s protocol (Promega). Luminescence signals were measured at 0.2 s using a Victor X4 multimode plate reader (PerkinElmer).

Another series concerns HepG2.2.15 cells. Nature of the series: Cell viability of HepG2.2.15 cells (ATP levels, CellTiter-Glo). Format: cell-based. Conditions: NVR 3-778 up to 4 μM and LMV up to 1.5 μM, alone or in combination, 6 days. Here is the method: as §1
For orientation: In ATP-based viability assays light output follows the ATP content of the culture.

Another series relates to HBV GT B (wild-type HBV). In words: Transient-transfection antiviral study in HepG2 cells, GT B (wild-type HBV). Format: cell-based, hepatitis B virus. Conditions: for EC50: Hepatitis B virus; for EC50 FC, wild type: reference, ratio to wild-type HBV.
A further series deals with HBV GT D. Nature of the series: Transient-transfection antiviral study in HepG2 cells, GT D. Format: cell-based. Conditions: Hepatitis B virus, HepG2, 72 h, read-out: EC50 (mean), HBV GT D.
The subject of another series is HBV GT E. In words: Transient-transfection antiviral study in HepG2 cells, GT E. Conditions: Hepatitis B virus, HepG2, 72 h, read-out: EC50 (mean), HBV GT E. Format: cell-based.
For the next series, the system named is HBV GT F. In words: Transient-transfection antiviral study in HepG2 cells, GT F. Format: cell-based. Conditions: Hepatitis B virus, HepG2, 72 h, read-out: EC50 (mean), HBV GT F.
Series [2] concerns HBV core protein variant I105L. Nature of the series: Transient-transfection antiviral study in HepG2 cells, core variant I105L. Format: cell-based, hepatitis B virus. Conditions: for EC50 FC, I105L: ratio of mean EC50 for core variant over wild-type HBV.
Method: (§2) Cells were cotransfected with the HBV plasmids (100 ng/well) and a Gaussia expression plasmid (10 ng/well) (Thermo Scientific) using the Lipofectamine LTX Plus transfection reagent (Life Technologies). Transfection mixtures were removed after overnight incubation, and cells were treated with serially diluted NVR 3-778 at a final dimethyl sulfoxide (DMSO) concentration of 0.5%. After 3 days of incubation with the compound, the supernatants were collected and secreted Gaussia luciferase was measured using a Gaussia Flash luciferase assay kit (Thermo Scientific). […] Samples were diluted into lysis buffer (Affymetrix) containing 2.5 µg proteinase K (Affymetrix) at 50°C for 40 min. Intracellular encapsidated HBV DNA was denatured for 30 min at 25°C in 0.2 M NaOH (Sigma) and incubated with HBV DNA probes designed to hybridize to the minus-strand HBV DNA (Affymetrix). The denatured DNA was subsequently detected using a QuantiGene assay kit, according to the branched DNA (bDNA) assay recommended by the manufacturer (Affymetrix).
Series [3] relates to HBV. Nature of the series: Combination study of NVR 3-778 with nucleos(t)ide analogs in HepG2.2.15 cells (MacSynergy II, CalcuSyn). Format: cell-based, hepatitis B virus (GT D). Here is the method:
The effect of the compound combinations on cell viability was evaluated by measuring the intracellular ATP levels of HepG2.2.15 cells.
HepG2.2.15 cells were seeded in 96-well plates at a density of 40,000 cells/well and incubated with serially diluted compounds at a final DMSO concentration of 0.5%. In combination studies, cells were treated with compounds either alone or in combination after combining the compounds in a checkerboard format. In studies examining the effect of human serum, serially diluted NVR 3-778 was added into cell culture medium containing 0% to 40% human serum (BioreclamationIVT). Cells were incubated with the compounds for 3 days, after which the medium was removed, fresh medium containing the compounds was added to the cells, and the cells were incubated for another 3 days prior to harvesting of the supernatants or cells for antiviral assays. To quantify intracellular encapsidated rcDNA or encapsidated pgRNA, cells were first solubilized using lysis buffer containing 1% NP-40 and 10 mM CaCl2. The cytoplasmic fraction was then treated with S7 nuclease (6 units) to remove nonencapsidated nucleic acids, after which the S7 nuclease was inactivated by the addition of EDTA (0.5 M). To quantify extracellular HBV DNA or HBV RNA, supernatants from HepG2.2.15 cells were treated with Turbo DNase at 37°C for 60 min, followed by inactivation of DNase at 75°C for 15 min. The levels of HBV DNA were determined by a bDNA assay as described above (Affymetrix). Supernatants or cell lysates containing HBV RNA were treated with proteinase K (2.5 µg) at 50°C for 40 min, transferred to a capture plate containing HBV RNA probe sets, and hybridized overnight at 55°C. Captured HBV RNA was measured by the addition of a chemiluminescent substrate using a QuantiGene assay (Affymetrix). To determine the cytotoxicity effect of the compounds on proliferating cells, HepG2.2.15 cells were seeded in 96-well plates at a density of 10,000 cells/well and incubated with serially diluted compounds at a final DMSO concentration of 0.5% for 3 days, after which the medium was removed, fresh medium containing the compounds was added to the cells, and the cells were incubated for another 3 days. At day 6, the CellTiter-Glo reagent was added to the cells and viability was determined according to the manufacturer’s protocol (Promega). Luminescence signals were measured at 0.2 s using a Victor X4 multimode plate reader (PerkinElmer).
To determine percent inhibition, the mean background signal from wells containing only culture medium was subtracted from the signal for all other samples, and percent inhibition at each compound concentration was calculated by normalization to the signals for HepG2.2.15 cells treated with 0.5% DMSO. […] Both CalcuSyn and MacSynergy II (Ann Arbor, MI) software were used to evaluate the effect of compound combinations ([27]). After data analysis at the 95% confidence level, values of synergy or antagonism of <25 µM^2% were defined as insignificant, those between 25 and 50 µM^2% were defined as minor, those between 50 and 100 µM^2% were defined as moderate, and those of >100 µM^2% were defined as strong.

In a further series the test system is plasma proteins. In words: Plasma protein binding by equilibrium dialysis, human. Format: in vitro ADME. Conditions: 2 µM. From the text:
The binding of NVR 3-778 to the plasma proteins of mouse, rat, dog, monkey, and human was investigated by equilibrium dialysis.
On the technique in general: In equilibrium dialysis free small molecules cross a membrane that holds back macromolecules.

Setting [4] is: HepG2.2.15 cells, 6 days, LMV 0.15-1.5 μM.
The mark [5] stands for this setting: in combination with NVR 3-778, HepG2.2.15 cells, 6 days, MacSynergy II, 95% confidence.

Where two headings read alike, the source gives them in different places.

Method for HBV GT B (wild-type HBV): as §2
Method for HBV GT D: as §2
Method for HBV GT E: as §2
Method for HBV GT F: as §2

Turning to `O=C(Nc1cc(F)c(F)c(F)c1)c1ccc(F)c(S(=O)(=O)N2CCC(O)CC2)c1` [NVR 3-778], the “Effect on secreted HBV RNA, single drug” value in the series on HBV [1] (HepG2.2.15 cells) was “inhibited the production of secreted HBV RNA”. Moreover, the EC50 in the series with HBV [1] (HepG2.2.15 cells, QuantiGene assay, read-out: EC50, intracellular encapsidated pgRNA (mean)) amounted to 440 nM; in the series on HBV [1] (HepG2.2.15 cells, branched DNA assay, read-out: EC50, intracellular encapsidated rcDNA (mean)) it was 340 nM; in the series on HBV [1] (HepG2.2.15 cells, supernatant, read-out: EC50, secreted HBV DNA (mean)), 400 nM; in the series on HBV [1] (HepG2.2.15 cells, supernatant, read-out: EC50, secreted HBV RNA (mean)), 600 nM; in the series on HBV GT B (wild-type HBV) (HepG2, 72 h, read-out: EC50 (mean), HBV GT B) it was 200 nM; in the series on HBV GT B (wild-type HBV) (HepG2, read-out: EC50, wild type HBV), 230 ± 110 nM. The EC50 in the series on HBV GT B (wild-type HBV) (HepG2, read-out: WT EC50) turned out to be 310 ± 100 nM; in the series on HBV GT D, 430 nM; in the series on HBV GT E, 580 nM; with HBV GT F, 560 nM; in [2] (Hepatitis B virus, HepG2, read-out: EC50, core variant I105L), 340 ± 130 nM. Moreover, the “Effect on cell viability” value in the series with HepG2.2.15 cells is reported as “did not affect cell viability”. The “EC50 FC, wild type” value in the series on HBV GT B (wild-type HBV) was determined as 1 fold. Further, the “EC50 FC, I105L” value in [2] came to 1.5 fold. Moreover, the “Effect of adding 0.4 μM NVR 3-778 to LMV on secreted HBV RNA” value with HBV [3] (setting [4]) was “partially reversed the increase in the level of secreted HBV RNA induced by LMV”. In the series with HBV [3] (setting [4]), the “Effect of adding 2 μM and 4 μM NVR 3-778 to LMV on secreted HBV RNA” value was “completely reverted the LMV effect”. Also, the “Mean percent binding to plasma proteins” value in the series with plasma proteins is “approximately 98%”.

In the case of `Nc1ccn([C@@H]2CS[C@H](CO)O2)c(=O)n1` [LMV, lamivudine, reference compound], the “Effect on secreted HBV RNA, single drug” value with HBV [1] (HepG2.2.15 cells) is “increased the production of secreted HBV RNA”. Besides, the EC50 in the series on HBV [1] (HepG2.2.15, values used as starting concentrations of the combination study, read-out: EC50 against HBV DNA replication in HepG2.2.15 cells) came out at 150 nM. Besides, in the series with HepG2.2.15 cells, the “Effect on cell viability” value is given as “did not affect cell viability”. Besides, the EC50 in the series on HBV GT B (wild-type HBV) (HepG2, read-out: WT EC50) came to 530 ± 120 nM. The “EC50 FC, wild type” value in the series with HBV GT B (wild-type HBV) stood at 1 fold. Moreover, in series [2], the “EC50 FC, I105L” value turned out to be 1.3 fold. Moreover, in the series on HBV [3] (setting [5]), the Antagonism was −14.3 μM^2% and the Synergy is listed as 5.1 μM^2%. In addition, in the series on HBV [3] (in combination with NVR 3-778, based on overall CI), the CalcuSyn-predicted effect result was “Additive”.

By EC50 is commonly meant the midpoint of the concentration-response curve.

These data come from publication PMC6325219, “Preclinical Characterization of NVR 3-778, a First-in-Class Capsid Assembly Modulator against Hepatitis B Virus” (Antimicrobial Agents and Chemotherapy, 2018).
